These results are taken from ChEMBL document CHEMBL1201862, “PubChem BioAssay data set” (2004).

SMILES strings stand for the structures.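 How tested: cells in 96-well plates exposed to compound for 48 hours at five concentrations. The concentration for 50% growth inhibition is given as GI50.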 Calls of active or inactive are those of the source. Rule as the data show it: active = GI50 up to about 1.1 µM and inactive = higher.

Among the test systems are SF-539; KM12; K562; A498; MDA-N; OVCAR-5; COLO 205; RXF 393; NCI/ADR-RES; NCI-H460; Hs-578T; OVCAR-8; NCI-H23; MDA-MB-231; SR; SK-MEL-5; SK-MEL-28; HT-29; UO-31; T47D.
What all share (experiment): NCI tumour cell line growth inhibition, 48 h

Regarding `CCOC(=O)C1=C(OS(=O)(=O)C(F)(F)F)CCCC1`, the GI50 with SF-539, in the test with KM12, in the test with K562, in the test with A498, in the test with MDA-N and in the test on OVCAR-5 was > 100 µM (inactive) throughout. In addition, the GI50 with COLO 205, with RXF 393, in the test on NCI/ADR-RES, in the test on NCI-H460, in the test on Hs-578T and in the test on OVCAR-8 was > 100 µM (inactive) throughout. For the same molecule, the GI50 was > 100 µM (inactive) in the test with NCI-H23; > 100 µM (inactive) with MDA-MB-231; > 100 µM (inactive) in the test with SR; 83 µM (inactive) in the test with SK-MEL-5; > 100 µM (inactive) in the test with SK-MEL-28; > 100 µM (inactive) with HT-29. For the same molecule, the GI50 in the test on UO-31 and in the test on T47D was > 100 µM (inactive) throughout.

With `O=[N+]([O-])/C(Cl)=C(\Nc1ccccc1)C(Cl)=C(Cl)Cl`, the GI50 was 27.9 µM (inactive) in the test with SF-539; 12.9 µM (inactive) in the test on KM12; 25 µM (inactive) with K562; 30.8 µM (inactive) in the test with A498; 36 µM (inactive) in the test with MDA-N; 40.8 µM (inactive) in the test on OVCAR-5. Moreover, the GI50 with COLO 205 is 19.5 µM (inactive); with RXF 393 it was 37.3 µM (inactive); with NCI/ADR-RES, 16 µM (inactive); in the test with NCI-H460, 39.4 µM (inactive); in the test on Hs-578T, 34.3 µM (inactive); in the test on OVCAR-8 it was 23.5 µM (inactive). The GI50 was 44.8 µM (inactive) in the test with NCI-H23; 34.4 µM (inactive) with MDA-MB-231; 27.4 µM (inactive) in the test on SR; 23.7 µM (inactive) in the test on SK-MEL-5; 36.8 µM (inactive) in the test with SK-MEL-28; 30.5 µM (inactive) with HT-29. In addition, the values for the GI50 with UO-31 and with T47D were 40.7 µM (inactive) and 29.1 µM (inactive), respectively.

For `Cn1c2ccccc2n2c(=O)c(-c3ccc(Cl)cc3)nnc12`, the GI50 is 43.3 µM (inactive) in the test with SF-539; > 100 µM (inactive) in the test with KM12; > 100 µM (inactive) with A498; > 100 µM (inactive) in the test on MDA-N; > 100 µM (inactive) in the test with OVCAR-5; > 100 µM (inactive) in the test on COLO 205. The GI50 in the test on RXF 393, in the test on NCI/ADR-RES, in the test on NCI-H460, in the test on Hs-578T, in the test on OVCAR-8 and in the test with NCI-H23 was > 100 µM (inactive) throughout. For the same molecule, the GI50 with MDA-MB-231 was 51.2 µM (inactive); with SR, > 100 µM (inactive); in the test on SK-MEL-5, > 100 µM (inactive); in the test on SK-MEL-28 it was > 100 µM (inactive); with HT-29, > 100 µM (inactive); in the test on UO-31 it was > 100 µM (inactive). The GI50 in the test with T47D was > 100 µM (inactive).

Take `COc1oc(C(=O)NC2CCCCC2)c(-c2ccc(Cl)cc2)c1S(=O)(=O)c1ccccc1`: the GI50 is 6.58 µM (inactive) in the test with SF-539; 5.55 µM (inactive) with KM12; 12.3 µM (inactive) in the test with K562; 2.15 µM (inactive) with A498; 64 µM (inactive) in the test on MDA-N; 23.4 µM (inactive) with OVCAR-5. In addition, the GI50 was 15.5 µM (inactive) with COLO 205; 3.02 µM (inactive) in the test on RXF 393; 2.76 µM (inactive) in the test on NCI/ADR-RES; 10.5 µM (inactive) in the test with NCI-H460; 16.2 µM (inactive) with Hs-578T; 6.4 µM (inactive) in the test with OVCAR-8. The GI50 is 9.51 µM (inactive) with MDA-MB-231; 5.51 µM (inactive) in the test with SR; 28.1 µM (inactive) in the test with SK-MEL-5; 49.3 µM (inactive) in the test with SK-MEL-28; 2.26 µM (inactive) with HT-29; 1.82 µM (inactive) with UO-31. In the test with T47D, the GI50 is 37.7 µM (inactive).

`CC(C)Cn1cnc2c(Cl)nc3ccccc3c21`: the GI50 was 46.3 µM (inactive) in the test with SF-539; 37.8 µM (inactive) in the test on KM12; 38.4 µM (inactive) in the test with K562; 33.9 µM (inactive) with A498; 68.2 µM (inactive) in the test with MDA-N; 54.7 µM (inactive) with OVCAR-5. For the same molecule, the GI50 in the test with COLO 205 is 33.7 µM (inactive); with RXF 393, 51.8 µM (inactive); with NCI/ADR-RES, 61.2 µM (inactive); in the test on NCI-H460 it was 54.2 µM (inactive); in the test on Hs-578T it was 27.7 µM (inactive); with OVCAR-8 it was 58.9 µM (inactive). Further, the GI50 with NCI-H23 is 59.3 µM (inactive); in the test with MDA-MB-231, 41.5 µM (inactive); with SR, 25.6 µM (inactive); with SK-MEL-5, 12.2 µM (inactive); in the test with SK-MEL-28 it was > 100 µM (inactive); in the test with HT-29, 46 µM (inactive). For the same molecule, the GI50 is 18.5 µM (inactive) with UO-31 and 77.1 µM (inactive) with T47D.

`O=C1/C(=C/c2ccc(Cl)cc2)N=C(c2ccccc2)N1c1nc2c(Cl)cc(Cl)cc2s1`: the GI50 in the test with SF-539 is 22.3 µM (inactive); in the test on KM12, 24.3 µM (inactive); in the test on K562 it was 25.1 µM (inactive); in the test on A498, 18.2 µM (inactive); in the test with MDA-N, 17.5 µM (inactive); in the test on OVCAR-5, 35.2 µM (inactive). In addition, the GI50 in the test with COLO 205 was 37.9 µM (inactive); in the test on RXF 393 it was 29.9 µM (inactive); in the test on NCI/ADR-RES, 27.2 µM (inactive); in the test on NCI-H460, 28.6 µM (inactive); in the test on Hs-578T, 31.5 µM (inactive); in the test with OVCAR-8 it was 31.9 µM (inactive). Moreover, the GI50 with MDA-MB-231 was 30.5 µM (inactive); in the test with SR, 14.3 µM (inactive); in the test on SK-MEL-5 it was 18.9 µM (inactive); in the test with SK-MEL-28 it was 44.5 µM (inactive); in the test on HT-29, 23.9 µM (inactive); in the test on UO-31, 25.8 µM (inactive). The GI50 in the test on T47D is 25.1 µM (inactive).

As to `CC(=O)OC1COC(n2c(-c3ccc(Cl)cc3)cc(-c3ccccc3)c(C#N)c2=S)C(OC(C)=O)C1OC(C)=O` (stereo not given), the GI50 with SF-539 is 4.42 µM (inactive); with KM12 it was 14.7 µM (inactive); in the test with K562 it was 12.2 µM (inactive); in the test with A498, 17.4 µM (inactive); in the test with MDA-N it was 22.1 µM (inactive); in the test with OVCAR-5 it was 32.7 µM (inactive). Also, the GI50 was 18.3 µM (inactive) in the test with COLO 205; 12.9 µM (inactive) with RXF 393; 14.1 µM (inactive) with NCI/ADR-RES; 19.1 µM (inactive) in the test on NCI-H460; 0.552 µM (active) with Hs-578T; 5.06 µM (inactive) in the test on OVCAR-8. The GI50 was 12.2 µM (inactive) in the test on NCI-H23; 2.88 µM (inactive) in the test on MDA-MB-231; 29.2 µM (inactive) with SR; 8.51 µM (inactive) in the test with SK-MEL-5; > 28.9 µM (inactive) with SK-MEL-28; 26.2 µM (inactive) in the test on HT-29. Besides, the GI50 in the test with UO-31 is 17.6 µM (inactive); in the test with T47D it was 14.1 µM (inactive).

As for `Cc1c(C#N)c2nnn(-c3cccc(Cl)c3)c(=O)n2c1-c1ccccc1`, the GI50 in the test on SF-539 was 1.59 µM (inactive); in the test with KM12, 0.895 µM (active); in the test on K562 it was 0.541 µM (active); in the test with A498, 2.36 µM (inactive); with MDA-N it was 0.428 µM (active); with OVCAR-5, 3.75 µM (inactive). Further, the GI50 with COLO 205 was 0.849 µM (active); in the test with RXF 393, 1.85 µM (inactive); in the test on NCI/ADR-RES, 3.1 µM (inactive); in the test on NCI-H460 it was 3.15 µM (inactive); in the test with Hs-578T it was 6.64 µM (inactive); in the test on OVCAR-8, 5.31 µM (inactive). For the same molecule, the GI50 with NCI-H23 was 8.77 µM (inactive); in the test with MDA-MB-231 it was 1.57 µM (inactive); with SR, 0.301 µM (active); in the test on SK-MEL-5, 3.84 µM (inactive); in the test on SK-MEL-28, 32.3 µM (inactive); with HT-29 it was 1.28 µM (inactive). Also, the GI50 was 8.97 µM (inactive) in the test with UO-31 and 4.25 µM (inactive) with T47D.

In the case of `NC(=O)CNC(=O)[C@@H]1C[C@@H](OCCC(=O)O)CN1C(=O)OCc1ccccc1`, the GI50 in the test with KM12, in the test on K562, in the test with A498, in the test on MDA-N, in the test on OVCAR-5 and in the test on COLO 205 was > 100 µM (inactive) throughout. Also, the GI50 is > 100 µM (inactive) in the test with RXF 393; > 100 µM (inactive) in the test on NCI/ADR-RES; > 100 µM (inactive) with NCI-H460; > 100 µM (inactive) with Hs-578T; > 10 µM (inactive) with OVCAR-8; > 100 µM (inactive) in the test with NCI-H23. In addition, the GI50 in the test on MDA-MB-231, in the test with SR, with SK-MEL-5, in the test on SK-MEL-28, in the test on HT-29 and in the test with UO-31 was > 100 µM (inactive) throughout. Further, in the test on T47D, the GI50 was > 100 µM (inactive).

`O=C(O)c1ccc(SSc2ccc(C(=O)O)cn2)nc1`: the GI50 in the test with SF-539, with KM12, in the test with K562, with A498, in the test on MDA-N and in the test with OVCAR-5 was > 100 µM (inactive) throughout. The GI50 in the test with COLO 205, in the test with RXF 393, in the test on NCI/ADR-RES, with NCI-H460, in the test on Hs-578T and in the test with OVCAR-8 was > 100 µM (inactive) throughout. Moreover, the GI50 in the test on NCI-H23, in the test with MDA-MB-231, in the test with SR, in the test with SK-MEL-5, in the test with SK-MEL-28 and in the test with HT-29 was > 100 µM (inactive) in each case. For the same molecule, in the test on T47D, the GI50 was > 100 µM (inactive).
